Measured values: publication PMC3930563, “Mycobacterium tuberculosis Exploits Asparagine to Assimilate Nitrogen and Resist Acid Stress during Infection” (PLoS Pathogens, 2014)

Molecular target: AnsA (Rv1538c), recombinant AnsA-HIS6 (Mycobacterium tuberculosis, UniProt P9WPX5)
Sequence (P9WPX5 whole entry): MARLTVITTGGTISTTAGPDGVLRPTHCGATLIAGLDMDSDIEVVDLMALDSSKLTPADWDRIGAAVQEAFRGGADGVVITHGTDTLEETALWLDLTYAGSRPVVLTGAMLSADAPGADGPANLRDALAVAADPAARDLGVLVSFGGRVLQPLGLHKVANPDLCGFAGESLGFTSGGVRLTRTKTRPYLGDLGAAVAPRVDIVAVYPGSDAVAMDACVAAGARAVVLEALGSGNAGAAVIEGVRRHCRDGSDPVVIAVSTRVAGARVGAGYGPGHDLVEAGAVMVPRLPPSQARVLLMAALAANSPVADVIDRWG

NC(=O)C[C@H](N)C(=O)O [Asn, asparagine]
coupled glutamate dehydrogenase assay, NADPH disappearance at 340 nm: revealed that AnsA mediates asparagine hydrolysis (Fig. 1E)
